Target: T1, 5HTR2B (Homo sapiens, UniProt P41595)
T1 construct: host or cells: human Maverick/293 cells
Assay: 5HTR2B antagonist activity, calcium mobilization assay in human Maverick/293 cells (serotonin as agonist)
Assay type: cell-based
Conditions: intracellular calcium, emission 525 nm, read-out: Ca assay IC50
Description: The 5HTR2B antagonist activity was measured using human Maverick/293 cells in a calcium mobilization assay. The measurement starting with plating human Maverick/293 cells (log phase) onto 96-well black and incubate at 37° C. overnight, Followed by starving cells for 2 h by changing complete medium to DMEM without FBS, removing the medium from the 96-well plate. Loading staining calcium buffer into each well and incubated the plate at 37° C. for 50 min. After removal of staining calcium buffer, diluted antagonist were added into the well, incubate 15 to 30 minutes. Dispense serotonin as the 5HTR2B agonists into each well. Intracellular calcium concentration is recorded for 80 seconds by monitoring an emission at a wavelength of 525 nm with an excitation wavelength of 485 nm. Inhibition efficiency of the cell line was determined following the equation: % Inhibition=100%−(D−B)/(S−B)*100%. (S: The peak value in the presence of agonist serotonin; D: The peak value in the presence of different dilution compound or serotonin; B: The peak value in the presence of calcium HBSS buffer only). […] A dose response curve was fitted using nonlinear regression model with a sigmoidal dose response. The IC50 was automatically produced by GraphPad Prism 5.0.

T1 sequence (P41595 whole entry): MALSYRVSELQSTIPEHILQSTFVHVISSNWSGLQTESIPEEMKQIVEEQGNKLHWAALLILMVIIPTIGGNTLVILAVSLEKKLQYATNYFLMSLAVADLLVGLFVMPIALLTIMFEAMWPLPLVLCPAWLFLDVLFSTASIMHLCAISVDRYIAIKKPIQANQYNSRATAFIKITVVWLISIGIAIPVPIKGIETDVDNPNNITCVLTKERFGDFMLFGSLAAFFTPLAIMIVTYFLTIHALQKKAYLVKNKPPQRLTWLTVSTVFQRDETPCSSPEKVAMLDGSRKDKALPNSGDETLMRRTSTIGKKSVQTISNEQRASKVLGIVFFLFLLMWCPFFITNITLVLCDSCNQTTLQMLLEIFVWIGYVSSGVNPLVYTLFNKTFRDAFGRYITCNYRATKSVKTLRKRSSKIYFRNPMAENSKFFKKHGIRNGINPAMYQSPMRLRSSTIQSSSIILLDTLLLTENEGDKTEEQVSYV

Compound	IC50 [nM]
COc1ccc(S(=O)(=O)N[C@H]2CCOC2)cc1C(=O)Nc1c(Cl)cccc1Cl [Compound 81, (S)—N-(2,6-Dichlorophenyl)-2-methoxy-5-(N-(tetrahydrofuran-3-yl)sulfamoyl) benzamide]	32
COc1ccc(S(=O)(=O)N[C@H]2CCN(C)C2)cc1C(=O)Nc1ccc(F)c(C)n1 [Compound 176, (S)—N-(5-Fluoro-6-methylpyridin-2-yl)-2-methoxy-5-(N-(1-methylpyrrolidin-3-yl)sulfamoyl)benzamide]	5
COc1ccc(N(C)S(=O)(=O)C2CCOC2)cc1C(=O)Nc1ccc(F)c(C)c1 (single isomer, unassigned) [Compound 204b, (S*)—N-(4-Fluoro-3-methylphenyl)-2-methoxy-5-(N-methyltetrahydrofuran-3-sulfonamido)benzamide]	56
COc1c(F)cc(S(=O)(=O)N[C@H]2CCOC2)cc1C(=O)Nc1ccc(F)c(C)c1 [Compound 200, (S)-3-fluoro-N-(4-fluoro-3-methylphenyl)-2-methoxy-5-(N-(tetrahydrofuran-3-yl)sulfamoyl)benzamide]	3.3
COc1ccc(S(=O)(=O)N[C@H]2CCOC2)cc1NC(=O)c1ccc(F)c(C)c1 [Compound 203, (S)-4-Fluoro-N-(2-methoxy-5-(N-(tetrahydrofuran-3-yl)sulfamoyl)phenyl)-3-methylbenzamide]	13
COc1ccc(S(=O)(=O)NC2CC(C)(C)C2)cc1C(=O)Nc1ccc(F)c(C)c1 [Compound 14, 5-(N-(3,3-Dimethylcyclobutyl)sulfamoyl)-N-(4-fluoro-3-methylphenyl)-2-methoxybenzamide]	14.6
COc1ccc(S(=O)(=O)N[C@H]2CCOC2)cc1C(=O)Nc1ccc(C#N)cc1F [Compound 73, (S)—N-(4-Cyano-2-fluorophenyl)-2-methoxy-5-(N-(tetrahydrofuran-3-yl)sulfamoyl)benzamide]	5.5
COc1ccc(S(=O)(=O)NC2CCCC[C@@H]2O)cc1C(=O)Nc1ccc(F)c(C)n1 (stereo in doubt) [Compound 28a, N-(5-Fluoro-6-methylpyridin-2-yl)-5-(N-((trans)-2-hydroxycyclohexyl)sulfamoyl)-2-methoxybenzamide]	19
COc1ccc(S(=O)(=O)N[C@H](C)CO)cc1C(=O)Nc1ccc(F)cc1 [Compound 52b, (R)—N-(4-fluorophenyl)-5-(N-(1-hydroxypropan-2-yl)sulfamoyl)-2-methoxybenzamide]	4.5
COc1ccc(S(=O)(=O)N[C@@H]2CCNC2)cc1C(=O)Nc1ccc(F)cc1 [Compound 180, (R)—N-(4-Fluorophenyl)-2-methoxy-5-(N-(pyrrolidin-3-yl)sulfamoyl)benzamide]	3.3
COc1ccc(S(=O)(=O)N[C@H](C)CO)cc1C(=O)Nc1ccc(F)cc1 [Compound 49b, (R)—N-(4-Fluorophenyl)-5-(N-(1-hydroxypropan-2-yl)sulfamoyl)-2-methoxybenzamide]	9
COc1ccc(S(=O)(=O)NCC(O)C(F)(F)F)cc1C(=O)Nc1ccc(F)cc1 (single isomer, unassigned) [Compound 44b, (R*)—N-(4-Fluorophenyl)-2-methoxy-5-(N-(3,3,3-trifluoro-2-hydroxypropyl)sulfamoyl)benzamide]	3.2
COc1ccc(S(=O)(=O)N[C@H]2CCOC2)cc1C(=O)Nc1cc(F)cc(F)c1 [Compound 67, (S)—N-(3,5-Difluorophenyl)-2-methoxy-5-(N-(tetrahydrofuran-3-yl)sulfamoyl)benzamide]	8.8
COc1ccc(S(=O)(=O)N[C@H]2CCOC2)cc1C(=O)Nc1ccc(OC(F)F)cc1 [Compound 106, (S)—N-(4-(Difluoromethoxy)phenyl)-2-methoxy-5-(N-(tetrahydrofuran-3-yl)sulfamoyl)benzamide]	596
COc1ccc(S(=O)(=O)N[C@H]2CCOC2)cc1C(=O)Nc1ncccc1Cl [Compound 121, (S)—N-(3-Chloropyridin-2-yl)-2-methoxy-5-(N-(tetrahydrofuran-3-yl)sulfamoyl) benzamide]	3.8
COc1ccc(S(=O)(=O)N[C@H]2CCOC2)cc1C(=O)Nc1ccc(F)c(C#N)c1 [Compound 95, (S)—N-(3-Cyano-4-fluorophenyl)-2-methoxy-5-(N-(tetrahydrofuran-3-yl)sulfamoyl)benzamide]	648
COc1ccc(S(=O)(=O)N[C@@H]2CCNC2)cc1C(=O)Nc1ccc(F)c(C(F)F)c1 [Compound 181]	4.5

These reach a lower IC50. Values come first.

IC50 [nM]	Compound
1.8	COc1ccc(S(=O)(=O)N[C@@H](C)C(N)=O)cc1C(=O)Nc1ccc(F)cc1 [Compound 46b, (S)-5-(N-(1-Amino-1-oxopropan-2-yl)sulfamoyl)-N-(4-fluorophenyl)-2-methoxybenzamide]
2.5	COc1ccc(S(=O)(=O)NC(C)C)cc1C(=O)Nc1ccc(F)c(C)c1 [Compound 8, N-(4-Fluoro-3-methylphenyl)-5-(N-isopropylsulfamoyl)-2-methoxybenzamide]
1.1	COc1ccc(S(=O)(=O)N[C@H]2CCOC2)cc1C(=O)Nc1nc(C)cs1 [Compound 82, (S)-2-methoxy-N-(4-methylthiazol-2-yl)-5-(N-(tetrahydrofuran-3-yl)sulfamoyl) benzamide]
0.7	COc1ccc(S(=O)(=O)N[C@H]2CCCOC2)cc1C(=O)Nc1ccc(F)cc1 [Compound 41, (S)—N-(4-Fluorophenyl)-2-methoxy-5-(N-(tetrahydro-2H-pyran-3-yl)sulfamoyl) benzamide]
2.1	COc1ccc(S(=O)(=O)N[C@H]2CCOC2)cc1C(=O)Nc1c(F)cccc1OC [Compound 130, (S)—N-(2-Fluoro-6-methoxyphenyl)-2-methoxy-5-(N-(tetrahydrofuran-3-yl)sulfamoyl)benzamide]
0.1	COc1ccc(S(=O)(=O)N[C@H]2CCOC2)cc1C(=O)Nc1ccccc1Cl [Compound 127, (S)—N-(2-Chlorophenyl)-2-methoxy-5-(N-(tetrahydrofuran-3-yl)sulfamoyl) benzamide]
3	COc1ccc(S(=O)(=O)NC(C)C(F)(F)F)cc1C(=O)Nc1ccc(F)c(C)n1 (single isomer, unassigned) [Compound 29a, (S*)—N-(5-Fluoro-6-methylpyridin-2-yl)-2-methoxy-5-(N-(1,1,1-trifluoropropan-2-yl)sulfamoyl)benzamide]
0.6	COc1ccc(S(=O)(=O)N[C@H]2C[C@H](O)C2)cc1C(=O)Nc1ccccc1Cl [Compound 154]
0.7	COc1ccc(S(=O)(=O)N[C@@H](C)CO)cc1C(=O)Nc1ccc(F)c(C(F)F)c1 [Compound 35a, (S)—N-(3-(Difluoromethyl)-4-fluorophenyl)-5-(N-(1-hydroxypropan-2-yl)sulfamoyl)-2-methoxybenzamide]
0.3	COc1ccc(S(=O)(=O)N[C@H]2CC[C@@H](O)CC2)cc1C(=O)Nc1ccc(F)cc1 [Compound 53, N-(4-Fluorophenyl)-5-(N-((cis)-4-hydroxycyclohexyl)sulfamoyl)-2-methoxybenzamide]
0.2	COc1ccc(S(=O)(=O)NC2COC[C@H]2O)cc1C(=O)Nc1ccccc1Cl (stereo in doubt) [Compound 56b, N-(2-Chlorophenyl)-5-(N-((cis)-4-hydroxytetrahydrofuran-3-yl)sulfamoyl)-2-methoxybenzamide]
0.3	COc1ccc(S(=O)(=O)N[C@H]2CCNC2)cc1C(=O)Nc1cc(F)ccc1Cl [Compound 186, (S)—N-(2-chloro-5-fluorophenyl)-2-methoxy-5-(N-(pyrrolidin-3-yl)sulfamoyl) benzamide]
0.4	COc1ccc(S(=O)(=O)N[C@@H]2CC[C@H](O)C2)cc1C(=O)Nc1ccc(F)c(C(F)F)c1 (single isomer, unassigned) [Compound 33a, N-(3-(Difluoromethyl)-4-fluorophenyl)-5-(N-((cis)-3-hydroxycyclopentyl)sulfamoyl)-2-methoxybenzamide]
0.32	COc1ccc(S(=O)(=O)N[C@H]2CCOC2)cc1C(=O)Nc1ccc(F)c(C(F)F)c1 [Compound 167, (S)—N-(3-(Difluoromethyl)-4-fluorophenyl)-2-methoxy-5-(N-(tetrahydrofuran-3-yl)sulfamoyl)benzamide]
0.8	COc1ccc(S(=O)(=O)N[C@H]2CCOC2)cc1C(=O)Nc1ccc(Cl)c(F)c1 [Compound 115, (S)—N-(4-Chloro-3-fluorophenyl)-2-methoxy-5-(N-(tetrahydrofuran-3-yl)sulfamoyl)benzamide]
1.4	COc1ccc(S(=O)(=O)NC(C)C)cc1C(=O)Nc1ccc(F)c(C)n1 [Compound 25, N-(5-Fluoro-6-methylpyridin-2-yl)-5-(N-isopropylsulfamoyl)-2-methoxy benzamide]
2.2	COc1ccc(S(=O)(=O)NC2(C)COC2)cc1C(=O)Nc1ccc(F)cc1 [Compound 42, N-(4-Fluorophenyl)-2-methoxy-5-(N-(3-methyloxetan-3-yl)sulfamoyl)benzamide]
0.7	COc1ccc(S(=O)(=O)N[C@H]2C[C@H](O)C2)cc1C(=O)Nc1ccc(Cl)cc1F [Compound 143a, N-(4-chloro-2-fluorophenyl)-5-(N-((trans)-3-hydroxycyclobutyl)sulfamoyl)-2-methoxybenzamide]
1.8	COc1ccc(S(=O)(=O)N[C@@H](C)C(N)=O)cc1C(=O)Nc1ccc(F)c(C)c1 [Compound 12a, (S)-5-(N-(1-Amino-1-oxopropan-2-yl)sulfamoyl)-N-(4-fluoro-3-methylphenyl)-2-methoxybenzamide]
